Test results taken from US20250332201A1, “PHARMACEUTICAL COMPOSITION, MEGASPHAERA, AND USE THEREOF” (MOON (GUANGZHOU) BIOTECH CO., LTD., priority 2022, published 2025).

How the values were obtained:
strain MNH05026 = experiment: Antibiotic sensitivity test, disk diffusion method; assay type: cell-based, Megasphaera sp.
Method: (§1) Antibiotic sensitivity tests of the strains MNH05026, MNH22004, and MNH27256: Antibiotic sensitivity tests were carried out on the strains MNH05026, MNH22004, and MNH27256 by a disk diffusion method.

strain MNH22004 = experiment: Antibiotic sensitivity test, disk diffusion method; assay type: cell-based, Megasphaera sp.
Method: as §1

strain MNH27256 = experiment: Antibiotic sensitivity test, disk diffusion method; assay type: cell-based, Megasphaera sp.
Method: as §1

[1] = test system: mice with NAFLD/NASH induced by a high-fat, high-carbohydrate, and high-cholesterol diet; experiment: NAFLD/NASH mouse model (high-fat, high-carbohydrate, high-cholesterol diet), strains combined with Semaglutide (Example 9); assay type: in vivo, C57BL/6J mice
Method: 3) Controls: PBS-Cys containing 25% glycerol PBS-Cys was used as a negative control; and Semaglutide was used as a positive control.
Administration was initiated after the grouping (D1). The negative control group was given the negative control (PBS-Cys) by gavage, 0.2 mL/mouse, twice a day; the positive control group was given Semaglutide by subcutaneous injection, at a dose of 30 nmol/kg, once every 3 days; and the combined treatment group was given Semaglutide (at a dose and frequency of use the same as those in the positive control group) and the corresponding bacterial solution (0.2 mL/mouse, twice a day) by gavage. The experimental period was 60 days. […] During the experiment, one general clinical observation was conducted after the end of each dosing. The animals were weighed twice a week during the dosing, and before dissection at the experimental endpoint. The endpoint of this experiment was the day following the end of dosing (D61). The animals were dissected and sampled according to the protocol at the experimental endpoint, and the data were summarized to analyze the results. […] Statistical analysis was performed using One-Way ANOVA with Dunnett's multiple comparison test.
Relevant experiments were conducted for the strains MNH05026, MNH22004, and MNH27256 using the methods as described in 1) to 4) above.

O=C(O)c1cn(C2CC2)c2cc(N3CCNCC3)c(F)cc2c1=O [Ciprofloxacin]
Sensitivity or resistance of strain MNH05026 to the antibiotic (strain MNH05026): sensitive
Sensitivity or resistance of strain MNH22004 to the antibiotic (strain MNH22004): sensitive
Sensitivity or resistance of strain MNH27256 to the antibiotic (strain MNH27256): sensitive

Penicillin
Sensitivity or resistance of strain MNH05026 to the antibiotic (strain MNH05026): sensitive
Diameter of inhibition zone by MNH22004 (strain MNH22004): 0 mm
Sensitivity or resistance of strain MNH22004 to the antibiotic (strain MNH22004): resistant
Diameter of inhibition zone by MNH27256 (strain MNH27256): 0 mm
Sensitivity or resistance of strain MNH27256 to the antibiotic (strain MNH27256): resistant

O=C(N[C@H](CO)[C@H](O)c1ccc([N+](=O)[O-])cc1)C(Cl)Cl [Chloramphenicol]
Sensitivity or resistance of strain MNH05026 to the antibiotic (strain MNH05026): sensitive
Sensitivity or resistance of strain MNH22004 to the antibiotic (strain MNH22004): sensitive
Sensitivity or resistance of strain MNH27256 to the antibiotic (strain MNH27256): sensitive

CO/N=C(\C(=O)N[C@@H]1C(=O)N2C(C(=O)O)=C(CSc3nc(=O)c(=O)[nH]n3C)CS[C@H]12)c1csc(N)n1 [Ceftriaxone]
Sensitivity or resistance of strain MNH05026 to the antibiotic (strain MNH05026): sensitive
Sensitivity or resistance of strain MNH22004 to the antibiotic (strain MNH22004): sensitive
Sensitivity or resistance of strain MNH27256 to the antibiotic (strain MNH27256): resistant

CCC[C@@H]1C[C@@H](C(=O)N[C@@H]([C@H]2O[C@H](SC)[C@H](O)[C@@H](O)[C@H]2O)[C@@H](C)O)N(C)C1 [Lincomycin]
Sensitivity or resistance of strain MNH05026 to the antibiotic (strain MNH05026): sensitive
Sensitivity or resistance of strain MNH22004 to the antibiotic (strain MNH22004): sensitive
Sensitivity or resistance of strain MNH27256 to the antibiotic (strain MNH27256): sensitive

Semaglutide
fasting blood glucose ([1]; Day 30 of oral glucose tolerance test): no significant effect
body weight, 1 d ([1]; day 1, in g (unit assumed)): 45.97
body weight, 33 d ([1]; day 33, in g (unit assumed)): 36.18
weight gain value ([1]; day 33 of intervention): −21.30%
body weight, 36 d ([1]; day 36, in g (unit assumed)): 35.94
body weight, 41 d ([1]; day 41, in g (unit assumed)): 35.98
body weight, 44 d ([1]; day 44, in g (unit assumed)): 36.34
body weight, 48 d ([1]; day 48, in g (unit assumed)): 37.02
body weight, 51 d ([1]; day 51, in g (unit assumed)): 37.26
body weight, 54 d ([1]; day 54, in g (unit assumed)): 36.84
body weight, 58 d ([1]; day 58, in g (unit assumed)): 38.09
body weight, 60 d ([1]; day 60, in g (unit assumed)): 36.67

Trimethoprim-sulfamethoxazole
Sensitivity or resistance of strain MNH05026 to the antibiotic (strain MNH05026): sensitive
Sensitivity or resistance of strain MNH22004 to the antibiotic (strain MNH22004): sensitive
Sensitivity or resistance of strain MNH27256 to the antibiotic (strain MNH27256): sensitive

CC[C@H]1OC(=O)[C@H](C)[C@@H](O[C@H]2C[C@@](C)(OC)[C@@H](O)[C@H](C)O2)[C@H](C)[C@@H](O[C@@H]2O[C@H](C)C[C@H](N(C)C)[C@H]2O)[C@](C)(O)C[C@@H](C)C(=O)[C@H](C)[C@@H](O)[C@]1(C)O [Erythromycin]
Sensitivity or resistance of strain MNH05026 to the antibiotic (strain MNH05026): sensitive
Sensitivity or resistance of strain MNH22004 to the antibiotic (strain MNH22004): sensitive
Sensitivity or resistance of strain MNH27256 to the antibiotic (strain MNH27256): sensitive

Gentamicin
Sensitivity or resistance of strain MNH05026 to the antibiotic (strain MNH05026): sensitive
Diameter of inhibition zone by MNH22004 (strain MNH22004): 9.00 mm
Sensitivity or resistance of strain MNH22004 to the antibiotic (strain MNH22004): sensitive
Sensitivity or resistance of strain MNH27256 to the antibiotic (strain MNH27256): sensitive

CC1(C)S[C@@H]2[C@H](NC(=O)[C@H](N)c3ccccc3)C(=O)N2[C@H]1C(=O)O [Ampicillin]
Sensitivity or resistance of strain MNH05026 to the antibiotic (strain MNH05026): sensitive
Sensitivity or resistance of strain MNH22004 to the antibiotic (strain MNH22004): resistant
Sensitivity or resistance of strain MNH27256 to the antibiotic (strain MNH27256): resistant
